Literature values in patent publication US9974839B2, “Self-assembled toroidal-spiral particles and manufacture and uses thereof” (THE BOARD OF TRUSTEES OF THE UNIVERSITY OF ILLINOIS, priority 2009, dated 2018).

Tested on: mitogenic activity
Details: in vitro

mono-PEGylated epidermal growth factor (EGF) with PEG 3400 at Lys28 and Lys48: literature EGF mono-PEGylated with PEG 3400 at Lys28 and Lys48 (ref. 28) (NSDSECPLSHDGYCLHDGVCMYIEALDKYACNCVVGYIGERCQYRDLKWWELR; Epidermal growth factor PEG 3400; UniProt P01133 971-1023, looked up)
mitogenic activity relative to EGF isomer PEGylated at the amino terminus: significantly less active
